“And” between values parts separate entries of the source, which are not always exact repeats. Identical values can stand only once. “Also recorded” adds a separate entry of the source.
Experiments:
[1] = system: Goldblatt 2 kidney, 1 clip model (renin-angiotensin mediated hypertension); assay: Blood pressure in Goldblatt 2 kidney, 1 clip rats (vasoconstrictive hypertension model); format: in vivo, rat; conditions: Group III, two rats; about 1.53 micrograms per 100 grams body weight
Protocol: (§1) In order to confirm the effectiveness of resibufogenin in treating volume expansion mediated hypertension, experiments were performed. Animal models of volume expansion mediated hypertension were created in the laboratory in accordance with guidance provided in “Down-regulation of Phosphorylation of Renal Proximal Brush Border Membrane Protein in DOCA-salt hypertensive rats”. H. Cai et al., J Am Soc Nephrol 5:S26, (1994). These models consisted of the administration of a potent mineralocorticoid desoxycorticosterone (DOCA) to rats whose drinking water had been replaced with 0.9% saline and which had one kidney removed (uninephrectomy) in order to induce volume expansion mediated hypertension. This group of animals is listed as Group I. Group II was the uninephrectomy control group (“time control”). Another group (Group III) utilized the Goldblatt 2 kidney, 1 clip model to induce vasoconstrictive (renin-angiotensin mediated) form of essential hypertension. All of the blood pressures were measured in mm Hg.
In each group, a baseline blood pressure was taken. This is shown in the first column. Subsequently, 10 days to 2 weeks prior to the introduction of resibufogenin, the blood pressure was measured. This appears in the second column. In the third column, the blood pressure was measured 10 days after administration of resibufogenin. […]

[2] = system: DOCA-salt uninephrectomized rats (volume expansion mediated hypertension); assay: Blood pressure in DOCA-salt uninephrectomized rats (volume expansion mediated hypertension model); format: in vivo, rat
Protocol: as §1
In each group, a baseline blood pressure was taken. This is shown in the first column. Subsequently, 10 days to 2 weeks prior to the introduction of resibufogenin, the blood pressure was measured. This appears in the second column. In the third column, the blood pressure was measured 10 days after administration of resibufogenin. The rats in Groups I and III weighed about 200 to 250 gm with resibufogenin being administered in the amount of about 1.53 micrograms per 100 grams of body weight. […] It is also noted that in the Group II control, that there was no meaningful pattern of reduction in blood pressure.
A dosage of approximately 1.53 micrograms […] with the rats weighing in the range of about 200-250 g was employed daily in order to determine the effectiveness of resibufogenin in the treatment of volume expansion mediated hypertension. The dosage was administered intraperitonially and the rats monitored after about three to four days of treatment. […]
The dosage was administered intraperitonially and the rats monitored after about three to four days of treatment. […]

[3] = Biological activity as antiangiogenesis agent

Compound: C[C@]12CC[C@H](O)C[C@H]1CC[C@@H]1[C@@H]2CC[C@]2(C)[C@@H](c3ccc(=O)oc3)C[C@H]3O[C@]132 [Resibufogenin, resibufogenin]
- Blood pressure response to resibufogenin (in words) [1]: neither animal responded to resibufogenin
- Reduction in blood pressure (in words) ([2]; Group I, four rats, 10 days after administration of resibufogenin): very substantial reduction in blood pressure; also recorded: meaningful reduction in blood pressure
- Blood Pressure After 10 days of Resibufogenin ([2]; Group I, individual rats #1-#4, about 1.53 micrograms per 100 grams body weight daily, intraperitoneal, in DMSO, after 10 days): 85 mmHg and 90 mmHg and 130 mmHg and 100 mmHg
- Reduction in blood pressure after treatment (in words) ([2]; daily intraperitoneal dose, rats monitored after about three to four days of treatment): all of the rats experienced a substantial reduction in blood pressure
- Biological activity as an antiangionesis agent [3]: not to be biologically active

Source: US20070014722A1, “Method of treating human volume expansion mediated hypertension employing resibufogenin” (The Administrators of the Tulane Educational Fund, priority 2005, published 2007)
